According to patent publication US20200363399A1, “SYSTEM AND METHOD FOR DETERMINING TUMOR INVASIVENESS” (University of Southern California, priority 2012, published 2020):

Tested on: MDA-MB-231 cells
Assay: Effect of Taxol on HFFU-induced Ca2+ elevations (cell response index, CRI), live-cell calcium fluorescence imaging
Assay type: cell-based, human
Conditions: for normalized CRI (cell response index): 24 h treatment, HFFU stimulation, n=10, normalized to 0 nM = 1.0
Protocol: In order to perform live-cell fluorescence imaging of target cells stimulated by HFFU, a HFFU stimulation system was added to an inverted epifluorescence microscope (Olympus 1X70). In order to generate the highly focused ultrasound beam for single cell stimulation, a 200-MHz press-focused LiNbO3 transducer (fc: 200 MHz and bandwidth: 29%) was used. The transducer was constructed with conventional transducer fabrication procedures (Lam et al., 2013). The focal length of the transducer was 1.3 mm and the f-number (F#) was 1.6. The measured beam width of the highly focused ultrasound beam was 17 μm, which was close to the predicted value of 12 μm (=focal length×wavelength) and approximately the size of a breast cancer cell. In order to generate the 200-MHz ultrasound beam, 200-MHz sinusoidal bursts from a function generator (Stanford Research Systems, Sunnyvale, Calif.) fed into a 50-dB power amplifier (525LA, ENI, USA) were used to drive the transducer. The resultant peak-to-peak (Vpp) voltages of the bursts were adjusted to 4, 8, 16, and 32 V. The duty factor was tuned to 1%, and the pulse repetition frequency (PRF) was 1 kHz.
Live-cell fluorescence imaging was carried out on the epifluorescence microscope to monitor the cytoplasmic Ca^2+ elevations elicited by HFFU in individual MDA-MB-231, MCF-7, SKBR3, and BT-474 cells labeled with Fluo-4 AM. Light from a mercury lamp was delivered to the cells for excitation after passing through an electronic shutter, an excitation bandpass filter (488±20 nm), a dichroic mirror (cut-off wavelength: 500 nm), and a 20×objective. Fluorescence emitted from the cells was then collected by the same objective and recorded using a high-sensitivity CCD camera (ORCA-Flash2.8, Hamamatsu, Japan) after passing through an emission bandpass filter (530±20 nm).
Fluo-4 AM was used for live-cell calcium fluorescence imaging. 10^5 cells were plated on 35 mm Petri dishes and incubated in the complete medium at 37° C. for 36 h before […] Fluo-4 AM solution, diluted with the external buffer solution, was added to the dishes. After the cells were incubated at room temperature for 30 min, the cells were thoroughly washed with external buffer solution and then time-lapse fluorescence imaging was initiated after the target cells were positioned at the beam focus. Fluorescence images were acquired at 1 Hz for t=300 s (exposure time: 300 ms), as the HFFU was switched on and off at t=50 s and t=200 s, respectively.
The program was written to obtain the mean normalized maximum calcium elevation value and a cell responding ratio from segmented images of target cells, semi-automatically. A cell responding ratio=the number of cells responding to HFFU/the number of total cells subjected to HFFU. More specifically, after fluorescence images of cells acquired at different time-points (0-300 s, step: 1 s) were averaged, the target cell receiving HFFU in the averaged image was selected and segmented by Otsu's method (Otsu, 1979), followed by the calculation of mean fluorescence intensities in the segmented regions of each image obtained at the indicated time-points. Temporal changes of the mean fluorescence in the target cell were then analyzed to determine whether calcium elevations were elicited by HFFU in the cell. The calcium elevation was here measured as the increase in the fluorescence intensity. […]

With `CC(=O)O[C@H]1C(=O)[C@@]2(C)[C@H]([C@H](OC(=O)c3ccccc3)[C@]3(O)C[C@H](OC(=O)[C@H](O)[C@@H](NC(=O)c4ccccc4)c4ccccc4)C(C)=C1C3(C)C)[C@]1(OC(C)=O)CO[C@@H]1C[C@@H]2O` [Taxol] the “reduction of the CRI relative to the untreated cells” value (1 nM Taxol) was −50%, the “normalized CRI (cell response index)” value (1 nM Taxol) was 0.52 and the “normalized CRI (cell response index)” value (10 nM Taxol) was 0.29. The “CRI remaining (reduced to)” value (100 nM Taxol) was 0% and the “normalized CRI (cell response index)” value (100 nM Taxol) was 0.
